Experimental data reported in EP4813383A1, “USE OF TAFAMIDIS AND PHARMACEUTICALLY ACCEPTABLE SALT THEREOF IN PREVENTION, ALLEVIATION, OR TREATMENT OF DISEASES ASSOCIATED WITH HIF-2a” (Huaya Jiyuan (Shenzhen) Pharmaceutical Co., Ltd., priority 2024, dated 2025).
Where a name gives a salt, the structure may show the parent alone.

Target: T1, HIF-2α (Homo sapiens, UniProt Q99814)
T1 construct: 786-O is a renal carcinoma cell line that predominantly expresses HIF-2α and lacks functional HIF-1α; endogenous in cells; host or cells: 786-O cells stably carrying an HRE-driven luciferase reporter
Test: Luciferase reporter gene assay (HRE-driven luciferase in stably transfected 786-O cells)
Type: cell-based
From the text: Experimental principles: 786-O is a renal carcinoma cell line that predominantly expresses HIF-2α and lacks functional HIF-1α. This characteristic makes 786-O cells an ideal model for studying HIF-2α transcriptional activity and related signaling pathways. In the luciferase reporter gene assay, a 786-O monoclonal cell line that stably expresses hypoxia response element (HRE)-driven luciferase (Luc) activity is obtained through puromycin selection. The HIF-2α agonist promotes dimerization of HIF-2α and HIF-β, and activates an HRE promoter. By measuring fluorescence intensity, luciferase activity can be determined, thereby assessing the ability of the HIF-2α agonist to promote transcription.
Experimental method: A total of 6000 stably transfected 786-O cells stably containing HRE and Luc sequences are seeded in each well of a 96-well plate, and 100 µL of RPMI-1640 culture medium containing 10% fetal bovine serum is added to each well. After 24 hours, a compound at a corresponding concentration is added to each well. A blank group is set as a control. Only a DMSO solvent is added in the well of the blank group. For initial compound screening, both tafamidis and tafamidis meglumine are tested at two concentrations: 2 µM and 20 µM. For concentration-gradient determination, each concentration is tested in triplicate. After co-incubation for 24 hours, the culture medium is discarded, and 20 µL of firefly luciferase reporter gene cell lysis buffer (RG126M, Beyotime) is added to each well. The 96-well plate is shaken on a microplate shaker for 10 minutes. After shaking, 10 µL of lysate is transferred into a white opaque plate, and then 10 µL of Steady-Lumi™ firefly luciferase assay reagent (RG058S, Beyotime) is added to each well. Finally, luminescence is measured using a microplate reader (Agilent Synergy Neo2). E20 represents the effect of the compound at a 20 µM concentration, and is calculated as: E20 = fluorescence value of the 20 µM well ÷ fluorescence value of the blank control × 100%. E2 represents the effect of the compound at a 2 µM concentration, and is calculated as: E2 = fluorescence value of the 2 µM well ÷ fluorescence value of the blank control × 100%. EC50 is the compound concentration at which the agonistic efficacy is increased by 50% relative to the blank control. The agonistic efficacy of a compound is determined by calculating the concentration (EC50) required to achieve a 50% increase in the fluorescence activity relative to the blank control and a maximum activation percentage (Emax). The maximum activation percentage (Emax) of an agonist refers to a ratio, expressed as a percentage, of the fluorescence value corresponding to the maximal effect (observed maximal response) induced when the agonist concentration reaches receptor-binding saturation in a particular receptor system, to the fluorescence value of the receptor system in the absence of agonist. In this experiment, Vyndaqel is directly used in place of tafamidis meglumine.

T1 sequence (Q99814 whole entry): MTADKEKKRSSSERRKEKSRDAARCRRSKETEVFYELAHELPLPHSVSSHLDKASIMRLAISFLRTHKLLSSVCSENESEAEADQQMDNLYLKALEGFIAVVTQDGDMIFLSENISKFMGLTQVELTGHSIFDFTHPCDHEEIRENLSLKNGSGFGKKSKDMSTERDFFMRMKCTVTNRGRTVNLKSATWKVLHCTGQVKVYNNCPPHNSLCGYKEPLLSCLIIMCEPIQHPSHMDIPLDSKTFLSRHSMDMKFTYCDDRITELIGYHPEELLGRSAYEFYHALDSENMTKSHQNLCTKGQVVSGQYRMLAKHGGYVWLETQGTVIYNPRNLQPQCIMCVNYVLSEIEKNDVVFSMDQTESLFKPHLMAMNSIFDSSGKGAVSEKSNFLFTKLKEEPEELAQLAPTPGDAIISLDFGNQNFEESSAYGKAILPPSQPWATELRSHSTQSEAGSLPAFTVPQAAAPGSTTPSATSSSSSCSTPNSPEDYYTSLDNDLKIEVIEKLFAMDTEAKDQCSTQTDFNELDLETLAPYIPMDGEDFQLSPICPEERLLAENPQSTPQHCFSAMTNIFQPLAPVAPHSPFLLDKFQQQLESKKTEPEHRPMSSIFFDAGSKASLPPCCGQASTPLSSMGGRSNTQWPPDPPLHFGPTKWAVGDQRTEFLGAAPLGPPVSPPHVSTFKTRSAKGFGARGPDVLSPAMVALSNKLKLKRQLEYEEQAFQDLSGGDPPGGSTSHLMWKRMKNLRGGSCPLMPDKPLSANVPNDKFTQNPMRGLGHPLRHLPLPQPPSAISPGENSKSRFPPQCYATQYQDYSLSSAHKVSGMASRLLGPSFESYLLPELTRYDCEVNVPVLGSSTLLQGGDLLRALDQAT
T1 sequence (P27540 whole entry partner): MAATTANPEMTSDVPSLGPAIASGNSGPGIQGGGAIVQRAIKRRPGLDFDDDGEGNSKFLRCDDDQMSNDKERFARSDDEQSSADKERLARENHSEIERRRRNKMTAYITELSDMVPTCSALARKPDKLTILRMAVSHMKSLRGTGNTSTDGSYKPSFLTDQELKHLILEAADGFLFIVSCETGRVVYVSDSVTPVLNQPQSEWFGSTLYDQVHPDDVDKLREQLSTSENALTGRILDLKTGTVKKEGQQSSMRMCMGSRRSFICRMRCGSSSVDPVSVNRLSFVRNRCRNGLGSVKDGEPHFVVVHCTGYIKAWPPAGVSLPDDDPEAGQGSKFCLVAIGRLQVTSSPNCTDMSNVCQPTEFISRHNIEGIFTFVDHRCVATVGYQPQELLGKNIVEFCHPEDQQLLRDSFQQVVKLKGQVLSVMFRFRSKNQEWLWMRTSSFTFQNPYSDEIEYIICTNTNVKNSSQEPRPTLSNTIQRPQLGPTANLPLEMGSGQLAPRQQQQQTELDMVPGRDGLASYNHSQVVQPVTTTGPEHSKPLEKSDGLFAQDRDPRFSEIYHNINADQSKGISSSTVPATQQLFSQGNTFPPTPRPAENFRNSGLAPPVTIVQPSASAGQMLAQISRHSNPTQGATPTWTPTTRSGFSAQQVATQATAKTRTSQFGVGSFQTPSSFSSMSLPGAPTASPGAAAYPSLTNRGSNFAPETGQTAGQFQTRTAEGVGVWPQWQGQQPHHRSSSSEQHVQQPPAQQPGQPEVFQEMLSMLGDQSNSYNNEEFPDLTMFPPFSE

**Q.** Which results are given for O=C(O)c1ccc2nc(-c3cc(Cl)cc(Cl)c3)oc2c1 [tafamidis meglumine, 1-deoxy-1-(methylamino)-D-glucitol salt of 2-(3,5-dichlorophenyl)-1,3-benzoxazole-6-carboxylic acid]?
**A.** agonistic efficacy at a 2 µM concentration (E2) (2 µM, 24 hours co-incubation, fluorescence value as % of blank control (DMSO)): 122%; agonistic efficacy at a 20 µM concentration (E20) (20 µM, 24 hours co-incubation, fluorescence value as % of blank control (DMSO)): 223%; EC50 (EC50, concentration required for a 50% increase in fluorescence activity relative to the blank control, 24 hours): 970 nM; Emax (maximum activation percentage) (maximal response as % of fluorescence without agonist): 228%
